{"source": "paper PMC7187312", "about": "(The New Phytologist, 2020)", "test_system": "Spinacia oleracea PM H^+-ATPase preincubated with FC/14-3-3 or TeA/14-3-3", "type": "biochemical", "data": [{"smiles": "C=CC(C)(C)OC[C@H]1O[C@H](O[C@@H]2C3=C([C@H](C)COC(C)=O)C[C@H](O)[C@]3(C)/C=C3/[C@@H](COC)CC[C@H]3[C@@H](C)[C@H]2O)[C@H](O)[C@@H](OC(C)=O)[C@@H]1O", "note": "[FC, Fusicoccin]", "values": [{"measurement": "effect on PM H^+-ATPase activity", "result": "activate"}, {"measurement": "specific activity", "result": 44.1, "unit": "Pi mg^−1 protein min^−1"}]}]}
